In the supplement of paper PMC10307832:

How the values were obtained:
Experiment in all cases: relative viability (nuclei count vs DMSO), 5 days (fraction); higher = more cells survive
NCI-H2347 = system: NCI-H2347
How it was run: (§1)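 Lung cancer cell lines were pin-tool dosed in 1536-well plates on the day after seeding, with either a lone drug or a fixed anchor-drug dose plus five library-drug doses (not always all listed) in √10 steps. Nuclei were counted on 4× images after 5 days. Relative viability is the ratio of treated-well to vehicle-well nuclei counts, with each value a median of duplicate plates.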

NCI-H358 = system: NCI-H358
How it was run: as §1

NCI-H460 = system: NCI-H460
How it was run: as §1

SW 1573 = system: SW 1573
How it was run: as §1

HCC-78 = system: HCC-78
How it was run: as §1

RERF-LC-KJ = system: RERF-LC-KJ
How it was run: as §1

NCI-H1915 = system: NCI-H1915
How it was run: as §1

LXF-289 = system: LXF-289
How it was run: as §1

HCC-15 = system: HCC-15
How it was run: as §1

NCI-H2126 = system: NCI-H2126
How it was run: as §1

NCI-H2228 = system: NCI-H2228
How it was run: as §1

A-427 = system: A-427
How it was run: as §1

LC-2-ad = system: LC-2-ad
How it was run: as §1

SK-LU-1 = system: SK-LU-1
How it was run: as §1

PC-3 [JPC-3] = system: PC-3 [JPC-3]
How it was run: as §1

NCI-H647 = system: NCI-H647
How it was run: as §1

NCI-H1755 = system: NCI-H1755
How it was run: as §1

LOU-NH91 = system: LOU-NH91
How it was run: as §1

NCI-H1792 = system: NCI-H1792
How it was run: as §1

NCI-H1734 = system: NCI-H1734
How it was run: as §1

HOP-62 = system: HOP-62
How it was run: as §1

NCI-H1975 = system: NCI-H1975
How it was run: as §1

Clc1ccc(Nc2nnc(Cc3ccncc3)c3ccccc23)cc1 [Vatalanib] + Cc1nc(NC(=O)N2CCC[C@H]2C(N)=O)sc1-c1ccnc(C(C)(C)C(F)(F)F)c1 [Alpelisib] (partner 2 µM)
relative viability (NCI-H2347; first compound 0.04 µM): 1.05
relative viability (NCI-H2347; first compound 0.1265 µM): 1.13
relative viability (NCI-H2347; first compound 0.4 µM): 1.03
relative viability (NCI-H2347; first compound 1.265 µM): 0.963
relative viability (NCI-H2347; first compound 4 µM): 1.03
relative viability (NCI-H358; first compound 0.04 µM): 0.88
relative viability (NCI-H358; first compound 0.1265 µM): 0.741
relative viability (NCI-H358; first compound 0.4 µM): 1.09
relative viability (NCI-H358; first compound 1.265 µM): 0.824
relative viability (NCI-H358; first compound 4 µM): 0.876
relative viability (NCI-H460; first compound 0.04 µM): 0.512
relative viability (NCI-H460; first compound 0.1265 µM): 0.392
relative viability (NCI-H460; first compound 0.4 µM): 0.654
relative viability (NCI-H460; first compound 1.265 µM): 0.467
relative viability (NCI-H460; first compound 4 µM): 0.441
relative viability (SW 1573; first compound 0.04 µM): 0.75
relative viability (SW 1573; first compound 0.1265 µM): 0.598
relative viability (SW 1573; first compound 0.4 µM): 0.749
relative viability (SW 1573; first compound 1.265 µM): 0.79
relative viability (SW 1573; first compound 4 µM): 0.667
relative viability (HCC-78; first compound 0.04 µM): 0.255
relative viability (HCC-78; first compound 0.1265 µM): 0.346
relative viability (HCC-78; first compound 0.4 µM): 0.277
relative viability (HCC-78; first compound 4 µM): 0.323
relative viability (RERF-LC-KJ; first compound 0.04 µM): 0.824
relative viability (RERF-LC-KJ; first compound 0.1265 µM): 0.859
relative viability (RERF-LC-KJ; first compound 0.4 µM): 0.77
relative viability (RERF-LC-KJ; first compound 1.265 µM): 0.74
relative viability (RERF-LC-KJ; first compound 4 µM): 0.765
relative viability (NCI-H1915; first compound 0.04 µM): 1.03
relative viability (NCI-H1915; first compound 0.1265 µM): 1.05
relative viability (NCI-H1915; first compound 0.4 µM): 1.06
relative viability (NCI-H1915; first compound 1.265 µM): 1.04
relative viability (NCI-H1915; first compound 4 µM): 1.1
relative viability (LXF-289; first compound 0.04 µM): 1.08
relative viability (LXF-289; first compound 0.1265 µM): 1.01
relative viability (LXF-289; first compound 0.4 µM): 1.06
relative viability (LXF-289; first compound 1.265 µM): 0.964
relative viability (LXF-289; first compound 4 µM): 0.995
relative viability (HCC-15; first compound 0.04 µM): 0.893
relative viability (HCC-15; first compound 0.1265 µM): 0.884
relative viability (HCC-15; first compound 0.4 µM): 0.918
relative viability (HCC-15; first compound 1.265 µM): 0.916
relative viability (HCC-15; first compound 4 µM): 0.937
relative viability (NCI-H2126; first compound 0.04 µM): 0.714
relative viability (NCI-H2126; first compound 0.1265 µM): 0.75
relative viability (NCI-H2126; first compound 0.4 µM): 0.761
relative viability (NCI-H2126; first compound 1.265 µM): 0.725
relative viability (NCI-H2126; first compound 4 µM): 0.742
relative viability (NCI-H2228; first compound 0.04 µM): 0.691
relative viability (NCI-H2228; first compound 0.1265 µM): 0.728
relative viability (NCI-H2228; first compound 0.4 µM): 0.867
relative viability (NCI-H2228; first compound 1.265 µM): 0.713
relative viability (NCI-H2228; first compound 4 µM): 0.637
relative viability (A-427; first compound 0.04 µM): 0.988
relative viability (A-427; first compound 0.1265 µM): 1.06
relative viability (A-427; first compound 0.4 µM): 1.13
relative viability (A-427; first compound 1.265 µM): 1.11
relative viability (A-427; first compound 4 µM): 1.08
relative viability (LC-2-ad; first compound 0.04 µM): 0.86
relative viability (LC-2-ad; first compound 0.1265 µM): 0.847
relative viability (LC-2-ad; first compound 0.4 µM): 0.988
relative viability (LC-2-ad; first compound 1.265 µM): 0.825
relative viability (LC-2-ad; first compound 4 µM): 0.867
relative viability (SK-LU-1; first compound 0.04 µM): 1.09
relative viability (SK-LU-1; first compound 0.1265 µM): 0.983
relative viability (SK-LU-1; first compound 0.4 µM): 1.31
relative viability (SK-LU-1; first compound 1.265 µM): 1.02
relative viability (SK-LU-1; first compound 4 µM): 1.04
relative viability (PC-3 [JPC-3]; first compound 0.04 µM): 1.01
relative viability (PC-3 [JPC-3]; first compound 0.1265 µM): 0.972
relative viability (PC-3 [JPC-3]; first compound 0.4 µM): 1.01
relative viability (PC-3 [JPC-3]; first compound 1.265 µM): 0.941
relative viability (PC-3 [JPC-3]; first compound 4 µM): 1.01
relative viability (NCI-H647; first compound 0.04 µM): 1.11
relative viability (NCI-H647; first compound 0.1265 µM): 1.05
relative viability (NCI-H647; first compound 0.4 µM): 1.19
relative viability (NCI-H647; first compound 1.265 µM): 1.1
relative viability (NCI-H647; first compound 4 µM): 1.05
relative viability (NCI-H1755; first compound 0.04 µM): 0.946
relative viability (NCI-H1755; first compound 0.1265 µM): 0.895
relative viability (NCI-H1755; first compound 0.4 µM): 0.977
relative viability (NCI-H1755; first compound 1.265 µM): 0.857
relative viability (NCI-H1755; first compound 4 µM): 0.906
relative viability (LOU-NH91; first compound 0.04 µM): 0.75
relative viability (LOU-NH91; first compound 0.1265 µM): 0.702
relative viability (LOU-NH91; first compound 0.4 µM): 0.595
relative viability (LOU-NH91; first compound 1.265 µM): 0.704
relative viability (LOU-NH91; first compound 4 µM): 0.732
relative viability (NCI-H1792; first compound 0.04 µM): 0.669
relative viability (NCI-H1792; first compound 0.1265 µM): 0.741
relative viability (NCI-H1792; first compound 0.4 µM): 0.639
relative viability (NCI-H1792; first compound 1.265 µM): 0.677
relative viability (NCI-H1792; first compound 4 µM): 0.73
relative viability (NCI-H1734; first compound 0.04 µM): 0.747
relative viability (NCI-H1734; first compound 0.1265 µM): 0.684
relative viability (NCI-H1734; first compound 0.4 µM): 0.743
relative viability (NCI-H1734; first compound 1.265 µM): 0.685
relative viability (NCI-H1734; first compound 4 µM): 0.689
relative viability (HOP-62; first compound 0.04 µM): 0.981
relative viability (HOP-62; first compound 0.4 µM): 1.07
relative viability (HOP-62; first compound 1.265 µM): 1.12
relative viability (HOP-62; first compound 4 µM): 0.855
relative viability (NCI-H1975; first compound 0.04 µM): 0.618
relative viability (NCI-H1975; first compound 0.1265 µM): 0.62
relative viability (NCI-H1975; first compound 0.4 µM): 0.627
relative viability (NCI-H1975; first compound 1.265 µM): 0.553
relative viability (NCI-H1975; first compound 4 µM): 0.519
